From the NIST ThermoML archive (doi:10.1016/j.tca.2011.02.002)
± gives the expanded uncertainty stated by the source.

Experiments:
[1] = xn = mol fraction of the nth substance listed; settings: 101 kPa, Liquid, x1 = 1; for mass density: Vibrating tube method
[2] = 101 kPa, Liquid; for mass density: Vibrating tube method

Row | SMILES | mass density ([1]; 298.15 K) [kg/m3] | speed of sound ([1]; 298.15 K) [m/s] | mass density ([1]; 303.15 K) [kg/m3] | speed of sound ([1]; 303.15 K) [m/s] | mass density ([1]; 308.15 K) [kg/m3] | speed of sound ([1]; 308.15 K) [m/s] | speed of sound ([2]; 298.15 K) [m/s] | mass density ([2]; 298.15 K) [kg/m3] | speed of sound ([2]; 303.15 K) [m/s] | mass density ([2]; 303.15 K) [kg/m3] | speed of sound ([2]; 308.15 K) [m/s] | mass density ([2]; 308.15 K) [kg/m3]
1 | C1CCOCC1 [tetrahydropyran] + c1ccncc1 | 879.136 ± 0.91 | 1269.9 ± 2 | 873.992 ± 0.9 | 1246.8 ± 2 | 868.831 ± 0.89 | 1224.5 ± 2 |  |  |  |  |  | 
2 | C1CCOCC1 [tetrahydropyran] + Cc1ccncc1 | 879.136 ± 0.91 | 1269.9 ± 2 | 873.992 ± 0.9 | 1246.8 ± 2 | 868.831 ± 0.89 | 1224.5 ± 2 |  |  |  |  |  | 
3 | Cc1ccncc1 [4-methylpyridine] |  |  |  |  |  |  | 1431.5 ± 1 | 950.179 ± 0.3 | 1410.7 ± 1 | 945.413 ± 0.3 | 1389.9 ± 1 | 940.821 ± 0.3
4 | C1CCOCC1 [tetrahydropyran] + Cc1cccnc1 | 879.136 ± 0.91 | 1269.9 ± 2 | 873.992 ± 0.9 | 1246.8 ± 2 | 868.831 ± 0.89 | 1224.5 ± 2 |  |  |  |  |  | 
5 | C1CCOCC1 [tetrahydropyran] |  |  |  |  |  |  | 1269.9 ± 2 | 879.136 ± 0.91 | 1246.8 ± 2 | 873.992 ± 0.9 | 1224.5 ± 2 | 868.831 ± 0.89
6 | C1CCOCC1 [tetrahydropyran] + Cc1ccccn1 | 879.136 ± 0.91 | 1269.9 ± 2 | 873.992 ± 0.9 | 1246.8 ± 2 | 868.831 ± 0.89 | 1224.5 ± 2 |  |  |  |  |  | 
7 | c1ccncc1 [pyridine] |  |  |  |  |  |  | 1417.6 ± 1.1 | 978.249 ± 0.3 | 1397.4 ± 1.1 | 973.224 ± 0.3 | 1377.1 ± 1.1 | 968.166 ± 0.3
8 | Cc1cccnc1 [3-methylpyridine] |  |  |  |  |  |  | 1424 ± 2 | 952.002 ± 1 | 1404 ± 2 | 947.449 ± 1 | 1384 ± 2 | 942.831 ± 0.99
9 | Cc1ccccn1 [2-methylpyridine] |  |  |  |  |  |  | 1380.1 ± 2 | 939.802 ± 0.99 | 1361 ± 2 | 935.117 ± 0.98 | 1339.9 ± 2 | 930.414 ± 0.98
